Experimental data from patent US20100167275A1, “Potassium channel mutants of the yeast Saccharomyces cerevisiae and their use for screening eukaryotic potassium channels” (sanofi-aventis Deutschland GmbH, priority 2000, published 2010).

Assays:
human Kv1.5 channel = target: T1, human Kv1.5 channel (Homo sapiens, UniProt P22460, DEL187-187/DEL55-55/P188G/P307A/R154P); experiment: Complementation of growth deficiency by Kv1.5 in the presence of activators; assay type: cell-based
T1 construct: expressed in transfected cells; host or cells: Saccharomyces cerevisiae Δtrk1 Δtrk2 Δtok1 (YM195; also Δtrk1 Δtrk2 YM190), vector p423-GPD3
From the text: (§1) Each of the strains YM168 (Δtrk1 Δtrk2) and YM182 (Δtrk1 Δtrk2 Δtok1) was transformed with the human potassium channels Kv1.5 ((Fedida, D. et al, 1998); YM190 and YM195) and HERG1 ((Fedida, D. et al., 1998); YM191 and YM196) in p423-GPD3, respectively, as yeast expression vector. gpIRK1 ((Tang, W. et al., 1995); YM193 and YM198) acted as positive control in p423-GPD3 as yeast expression vector (Mumberg, D. et al., 1995; Ronicke, V. et al., 1997). The blank vector p423-GPD3 (YM189 and YM194) acted as negative control. The transformed yeast strains were plated onto (−)HIS/80 mM KCl medium. After this, patches of single colonies were replica-plated onto DPM/5 mM KCl (pH 6.5) to check the capacity of complementing the potassium deficiency.
(§2) Kv1.5: Rb^+ extends the hyperpolarization phase. This means that the inwardly directed K^+ flux is more prolonged and increases the possibility of complementing the growth deficiency.
The yeast strains YM 194 and YM 195 were tested in DPM/-HIS/5 mM KCl with 1 mM RbCl for the different growth behavior in liquid medium. To this end, 10 ml of overnight culture were set up in DPM/-HIS/80 mM KCl and, next morning, brought to an OD600 of 0.05 with the relevant media (final volume: 20 ml). The optical density at 600 nm was determined at defined intervals with the aid of a photometer.

gpIRK1 = target: T2, gpIRK1 (Cavia porcellus, UniProt P52185); experiment: Complementation of growth deficiency by gpIRK1 in the presence of CsCl; assay type: cell-based, guinea pig; settings: 2 mM CsCl
T2 construct: expressed in transfected cells; host or cells: Saccharomyces cerevisiae Δtrk1 Δtrk2 (YM193) and Δtrk1 Δtrk2 Δtok1 (YM198), vector p423-GPD3
T2 sequence (P52185 1-427): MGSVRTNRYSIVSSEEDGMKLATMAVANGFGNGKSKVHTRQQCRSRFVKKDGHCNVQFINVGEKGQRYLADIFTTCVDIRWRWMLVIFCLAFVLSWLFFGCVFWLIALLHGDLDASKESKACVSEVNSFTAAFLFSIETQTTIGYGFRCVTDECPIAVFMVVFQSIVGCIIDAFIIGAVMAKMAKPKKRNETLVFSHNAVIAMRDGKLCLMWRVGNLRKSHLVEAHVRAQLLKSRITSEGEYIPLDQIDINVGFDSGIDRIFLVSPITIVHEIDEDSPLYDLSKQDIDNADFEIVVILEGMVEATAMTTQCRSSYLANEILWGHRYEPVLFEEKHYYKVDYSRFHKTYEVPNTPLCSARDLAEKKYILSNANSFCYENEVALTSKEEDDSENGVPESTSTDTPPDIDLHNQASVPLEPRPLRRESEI
From the text: as §1

human HERG1 channel = target: T3, human HERG1 channel (Homo sapiens, UniProt Q12809); experiment: Complementation of growth deficiency by HERG1 on culture plates in the presence of activators; assay type: cell-based; settings: 2 mM CsCl, DPM 5 mM KCl pH 6.5, FIG. 4
T3 construct: expressed in transfected cells; host or cells: Saccharomyces cerevisiae Δtrk1 Δtrk2 Δtok1 (YM182 background; strain YM196), vector p423-GPD3
From the text: as §1, §2
HERG: Cs^+ extends the hyperpolarization phase. This means that the inwardly directed K^+ flux is more prolonged and increases the possibility of complementing the growth deficiency. This channel is inhibited by Cs^+. IRK1: Cs^+ blocks this channel.

[1] = tested on: triple mutant Δtrk1Δtrk2Δtok1 with p423GPD; experiment: Growth of triple mutant Δtrk1Δtrk2Δtok1 with blank vector p423GPD (YM194), OD 620 nm; assay type: cell-based, Saccharomyces cerevisiae; settings: 2 mM RbCl; DPM-HIS 5 mM KCl, pH 6.5, 24 hours growth, starting OD 0.01
Protocol: The cell density was measured after 24 hours' growth (density of the starter culture: 0.01 OD620) via determination of the optical density at a wavelength of 620 nm. The values corresponded to the average of in each case 4 measurements±SD.

[2] = target: T4, human potassium channel ROMK2 (Homo sapiens, UniProt P48048); experiment: Growth of triple mutant Δtrk1Δtrk2Δtok1 expressing ROMK2 (YM256), OD 620 nm; assay type: cell-based; settings: 2 mM RbCl
T4 construct: expressed in transfected cells; host or cells: Saccharomyces cerevisiae Δtrk1Δtrk2Δtok1, strain YM256, vector p423GPD
T4 sequence (P48048 1-372 isoform P48048-2): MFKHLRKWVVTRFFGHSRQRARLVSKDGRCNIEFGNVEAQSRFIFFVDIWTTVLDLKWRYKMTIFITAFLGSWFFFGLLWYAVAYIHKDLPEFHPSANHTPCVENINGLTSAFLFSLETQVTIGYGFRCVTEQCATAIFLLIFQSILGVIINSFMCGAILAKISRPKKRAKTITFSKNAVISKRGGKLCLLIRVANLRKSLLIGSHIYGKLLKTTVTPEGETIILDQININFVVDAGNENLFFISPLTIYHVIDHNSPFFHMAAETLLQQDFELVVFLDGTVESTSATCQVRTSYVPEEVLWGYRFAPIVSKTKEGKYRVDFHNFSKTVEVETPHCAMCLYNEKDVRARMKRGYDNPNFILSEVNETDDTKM
From the text: The human potassium channel ROMK2 ((Shuck, M. E. et al., 1994; Bock, J. H. et al., 1997); Sequence SEQ ID NO. 31 hROMK2) was subcloned into the yeast vector p423GPD and transformed into the triple mutant Δtrk1Δtrk2Δtok1.

T1 sequence (P22460 with tags, fused parts or gaps DEL55-55/R154P/DEL187-187/P188G/P307A): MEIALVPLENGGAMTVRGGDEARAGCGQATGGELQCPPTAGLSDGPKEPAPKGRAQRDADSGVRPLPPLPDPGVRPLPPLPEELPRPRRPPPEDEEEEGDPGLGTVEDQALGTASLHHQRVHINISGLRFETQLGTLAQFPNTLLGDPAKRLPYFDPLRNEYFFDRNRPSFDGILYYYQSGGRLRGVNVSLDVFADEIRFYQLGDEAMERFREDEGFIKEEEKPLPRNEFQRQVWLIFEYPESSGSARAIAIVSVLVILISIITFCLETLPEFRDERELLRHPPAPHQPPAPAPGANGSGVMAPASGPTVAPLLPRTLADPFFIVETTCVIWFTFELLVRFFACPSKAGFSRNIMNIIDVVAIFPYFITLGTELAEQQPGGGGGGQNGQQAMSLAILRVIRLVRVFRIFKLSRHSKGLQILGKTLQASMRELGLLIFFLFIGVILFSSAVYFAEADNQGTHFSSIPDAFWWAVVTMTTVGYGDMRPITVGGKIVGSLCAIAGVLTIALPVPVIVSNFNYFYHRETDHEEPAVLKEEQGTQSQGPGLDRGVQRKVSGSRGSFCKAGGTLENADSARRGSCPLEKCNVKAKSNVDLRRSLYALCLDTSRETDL
T3 sequence (Q12809 whole entry): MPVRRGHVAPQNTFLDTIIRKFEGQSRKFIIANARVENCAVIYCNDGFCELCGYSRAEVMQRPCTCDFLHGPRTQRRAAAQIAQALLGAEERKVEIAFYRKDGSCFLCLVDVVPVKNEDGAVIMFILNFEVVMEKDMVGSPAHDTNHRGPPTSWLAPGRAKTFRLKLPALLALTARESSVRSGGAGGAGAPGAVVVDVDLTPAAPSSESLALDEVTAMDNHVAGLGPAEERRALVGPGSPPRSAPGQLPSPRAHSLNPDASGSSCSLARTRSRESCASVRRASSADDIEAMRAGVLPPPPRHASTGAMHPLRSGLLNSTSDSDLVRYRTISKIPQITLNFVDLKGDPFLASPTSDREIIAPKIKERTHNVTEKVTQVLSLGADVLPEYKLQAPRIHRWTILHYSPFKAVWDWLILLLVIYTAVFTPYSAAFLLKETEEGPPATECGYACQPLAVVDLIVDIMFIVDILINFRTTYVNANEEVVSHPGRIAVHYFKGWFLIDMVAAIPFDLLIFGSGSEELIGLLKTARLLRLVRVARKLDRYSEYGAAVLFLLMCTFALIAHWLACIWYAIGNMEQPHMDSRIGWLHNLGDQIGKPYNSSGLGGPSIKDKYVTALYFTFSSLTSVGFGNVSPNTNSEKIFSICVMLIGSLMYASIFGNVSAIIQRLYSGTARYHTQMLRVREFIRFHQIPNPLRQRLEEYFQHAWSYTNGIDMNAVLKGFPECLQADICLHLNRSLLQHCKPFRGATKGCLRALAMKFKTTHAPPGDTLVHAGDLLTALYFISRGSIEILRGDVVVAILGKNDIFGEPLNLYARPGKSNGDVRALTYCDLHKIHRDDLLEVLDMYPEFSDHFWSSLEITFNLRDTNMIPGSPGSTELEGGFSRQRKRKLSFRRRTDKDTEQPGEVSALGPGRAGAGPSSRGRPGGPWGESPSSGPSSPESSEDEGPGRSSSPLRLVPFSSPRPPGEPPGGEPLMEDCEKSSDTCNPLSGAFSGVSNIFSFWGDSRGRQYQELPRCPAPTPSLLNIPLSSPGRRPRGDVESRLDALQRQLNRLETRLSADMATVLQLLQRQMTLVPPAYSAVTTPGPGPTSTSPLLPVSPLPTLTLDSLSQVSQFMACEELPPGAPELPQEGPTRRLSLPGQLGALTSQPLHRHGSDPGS

Row | SMILES | complementation of the growth deficiency by Kv1.5 in the presence of CsCl (human Kv1.5 channel; 2 mM CsCl) | complementation of the growth deficiency by gpIRK1 in the presence of CsCl (gpIRK1) | complementation of the growth deficiency of the Δtrk1 Δtrk2 Δtok1 mutant by human HERG1 in the presence of activator (human HERG1 channel) | complementation of the growth deficiency of the Δtrk1 Δtrk2 Δtok1 mutant by human Kv1.5 in the presence of activator (human Kv1.5 channel; 2 mM RbCl, culture plates, DPM 5 mM KCl pH 6.5, FIG. 3) | 194 (average growth of p423GPD strain YM194, OD) [1] | 256 (average growth of p423GPD-ROMK2 strain YM256, OD) ([2]; DPM-HIS 5 mM KCl, pH 6.5, 24 hours growth, starting OD 0.01) | Signal to noise ratio S/N ([2]; YM256 versus YM194, DPM-HIS 5 mM KCl, pH 6.5, 24 hours)
1 | [Cl-].[Cs+] [CsCl] | inhibited | inhibited | fully complementing | – | – | – | –
2 | [Cl-].[Rb+] [RbCl] | – | – | – | fully complementing | 0.048 | 0.44 | 8.46
